According to ChEMBL document CHEMBL5034037, “Synthesis, Characterization, and Preclinical Evaluation of a Small-Molecule Prostate-Specific Membrane Antigen-Targeted Monomethyl Auristatin E Conjugate” (J Med Chem, 2021):
Active and inactive are the calls of the source. The rule behind the calls is not given here. *1 amine or outer side, *2 acyl side, *3 side chain or, on linkers, in order; H or OH if unused. Where a SMILES comes first, the peptide text is derived from it. [ ]: non-standard residue; d: D form. The star is where a group is joined. GluureaLys(ε-3-ClBenzyl) = O=C(O)CC[C@H](NC(=O)N[C@@H](CCCCN(Cc1cccc(Cl)c1)*)C(=O)O)C(=O)O; Dolaproine = CO[C@@H]([C@@H]1CCCN1)[C@@H](C)C(=O)O; Dil = CC[C@H](C)[C@H](NC)[C@@H](CC(=O)O)OC; X1 = O=C(CCCc1cn(CCCN[*:1])nn1)[*:2]; PABC = O=C(OCc1ccc(N[*:1])cc1)[*:2]; X2 = C[C@@H](N*)[C@@H](O)c1ccccc1; Cit = NC(=O)NCCC[C@H](N)C(=O)O; Suc = O=C(CCC(=O)[*:2])[*:1]; NMeV = CN[C@H](C(=O)O)C(C)C; Ahx = NCCCCCC(=O)O

Columns and labels:
Salmonella typhimurium [1] = experiment: Mutagenecity in Salmonella typhimurium TA100 in presence of metabolic activation system at 100 ug/ml by Ames test; format: toxicity, organism-based; settings: salmonella enterica subsp. enterica serovar typhimurium; dose 100 µg/ml
[2] = Stability of compound at pH 5.6 assessed as recombinant cathepsin B mediated hydrolysis by measuring MMAE release by HPLC-MS analysis; format: physicochemical; settings: buffer
[3] = Toxicity in rabbit assessed as morphological changes in heart muscle at 81 to 122 microg/kg, iv; format: tissue-based, Oryctolagus cuniculus; settings: in vivo, dose 81-122 µg/kg
CWR22R = experiment: Antitumor activity against human 22Rv1 cells xenografted in mouse assessed as tumour growth inhibition at 0.3 mg/kg, ip daily treated for 5 days after 18 days of tumor implantation measured upto 10 days; format: functional; settings: 22Rv1, ip, 120 h, time 5 day, read-out: TGI
[4] = Toxicity in rat assessed as morphological changes in brain sulcus at 150 to 225 microg/kg, iv; format: tissue-based; settings: in vivo, dose 150-225 µg/kg
[5] = Half life in rabbit at 0.81 mg/kg, iv; format: ADME, organism-based, Oryctolagus cuniculus; settings: in vivo
[6] = Acute toxicity in iv dosed Wistar rat assessed as maximum tolerated dose; format: organism-based; settings: in vivo, read-out: MNTD
[7] = Toxicity in rat assessed as morphological changes in mucosa of trachea at 150 to 225 microg/kg, iv; format: tissue-based; settings: in vivo, dose 150-225 µg/kg
[8] = Toxicity in rabbit morphological change in mucosae of mouth at 81 to 122 microg/kg, iv; format: tissue-based, Oryctolagus cuniculus; settings: in vivo, dose 81-122 µg/kg
Salmonella typhimurium [9] = experiment: Mutagenecity in Salmonella typhimurium TA98 in presence of metabolic activation system at 1 ug/ml by Ames test; format: toxicity, organism-based; settings: salmonella enterica subsp. enterica serovar typhimurium; dose 1 µg/ml
[10] = Toxicity in rabbit assessed as morphological changes in kidney at 81 to 122 microg/kg, iv; format: tissue-based, Oryctolagus cuniculus; settings: in vivo, dose 81-122 µg/kg
[11] = Toxicity in rabbit morphological change in tongue at 81 to 122 microg/kg, iv; format: tissue-based, Oryctolagus cuniculus; settings: in vivo, dose 81-122 µg/kg
[12] = Toxicity in rat assessed as morphological changes in diameter of aorta at 150 to 225 microg/kg, iv; format: tissue-based; settings: in vivo, dose 150-225 µg/kg
Salmonella typhimurium [13] = experiment: Mutagenecity in Salmonella typhimurium TA97 in presence of metabolic activation system at 10 ug/ml by Ames test; format: toxicity, organism-based; settings: salmonella enterica subsp. enterica serovar typhimurium; dose 10 µg/ml
[14] = Stability of the compound in human liver microsome assessed as half life; format: ADME; settings: liver microsomes
PC-3 = experiment: Induction morphological changes in human PC-3 cells assessed as decrease in cell membrane stiffness measured immediately after MMAE addition; format: functional, cell-based; settings: time hrs <=1
[15] = Toxicity in rabbit assessed as morphological changes in testes at 81 to 122 microg/kg, iv; set-up: species or system Oryctolagus cuniculus; settings: in vivo, dose 81-122 µg/kg
Cytochrome P450 2C8 = molecular target: T1, Cytochrome P450 2C8 (Homo sapiens, UniProt P10632); experiment: Drug metabolism assessed as human liver microsome CYP2C8-mediatd metabolism; format: ADME; settings: microsomes
T1 sequence (P10632 whole entry): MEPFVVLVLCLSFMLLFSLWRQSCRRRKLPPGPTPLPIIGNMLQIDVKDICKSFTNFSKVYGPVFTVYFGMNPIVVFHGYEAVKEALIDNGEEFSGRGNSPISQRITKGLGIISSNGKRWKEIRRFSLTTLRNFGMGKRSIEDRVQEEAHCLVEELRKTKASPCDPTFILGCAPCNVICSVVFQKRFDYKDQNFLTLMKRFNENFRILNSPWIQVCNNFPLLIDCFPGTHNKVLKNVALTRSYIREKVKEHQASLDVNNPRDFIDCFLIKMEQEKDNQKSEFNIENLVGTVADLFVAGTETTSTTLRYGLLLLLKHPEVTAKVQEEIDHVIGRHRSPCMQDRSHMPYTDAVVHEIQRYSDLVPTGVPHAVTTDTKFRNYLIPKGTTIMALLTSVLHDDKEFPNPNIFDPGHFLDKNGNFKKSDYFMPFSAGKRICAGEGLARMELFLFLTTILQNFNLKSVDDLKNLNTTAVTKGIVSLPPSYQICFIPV

[16] = Toxicity in rat assessed as morphological changes in gastric wall mucosa at 150 to 225 microg/kg, iv; settings: in vivo, dose 150-225 µg/kg
[17] = Toxicity in rat assessed as morphological changes in aortic intima at 150 to 225 microg/kg, iv; settings: in vivo, dose 150-225 µg/kg
Salmonella typhimurium [18] = experiment: Mutagenecity in Salmonella typhimurium TA97 without metabolic activation system at 1000 ug/ml by Ames test; format: toxicity, organism-based; settings: salmonella enterica subsp. enterica serovar typhimurium; dose 1000 µg/ml
[19] = AUC (0 to t) in rabbit at 0.81 mg/kg, iv; format: ADME, organism-based, Oryctolagus cuniculus; set-up: dose 0.81 mg/kg; settings: in vivo
[20] = Acute toxicity in iv dosed ICR mouse assessed as maximum tolerated dose; format: organism-based; settings: in vivo, read-out: MNTD
Cytochrome P450 2C9 = Cytochrome P450 2C9 (Homo sapiens, UniProt P11712); experiment: Inhibition of CYP2C9 in human liver microsome using tolbutamide as substrate; format: ADME, microsomes
[21] = Toxicity in rabbit assessed as morphological changes in gastric wall mucosa at 81 to 122 microg/kg, iv; set-up: species or system Oryctolagus cuniculus; settings: in vivo, dose 81-122 µg/kg
Salmonella typhimurium [22] = experiment: Mutagenecity in Salmonella typhimurium TA98 without metabolic activation system at 10 ug/ml by Ames test; format: toxicity, organism-based; settings: salmonella enterica subsp. enterica serovar typhimurium; dose 10 µg/ml
[23] = Toxicity in rat assessed as morphological changes in adrenal gland at 150 to 225 microg/kg, iv; format: tissue-based; settings: in vivo, dose 150-225 µg/kg
[24] = Toxicity in rabbit assessed as morphological changes in heart at 81 to 122 microg/kg, iv; format: tissue-based, Oryctolagus cuniculus; settings: in vivo, dose 81-122 µg/kg
[25] = Chronic toxicity in rabbit assessed as mortality rate at 5.4 microg/kg, iv dosed measured at day 4; format: organism-based, Oryctolagus cuniculus; settings: in vivo, 0.0054 mg/kg, dose 5.4 µg/kg, read-out: Activity
Cytochrome P450 3A4 = Cytochrome P450 3A4 (Homo sapiens, UniProt P08684); experiment: Inhibition of CYP3A4 in human liver microsome using testosterone as substrate; format: ADME, microsomes
[26] = Toxicity in rat assessed as morphological changes in mucosa of thyroid gland at 150 to 225 microg/kg, iv; format: tissue-based; settings: in vivo, dose 150-225 µg/kg
[27] = Initial plasma concentration in Wistar rat plasma at 1.5 mg/kg, iv; format: ADME, organism-based
[28] = Antitumor activity against human 22Rv1 cells xenografted in mouse assessed as tumour growth inhibition at 10 mg/kg,ip daily treated for 5 days after 18 days of tumor implantation measured upto 10 days; format: functional, CWR22R; settings: 22Rv1, ip, 120 h, time 5 day, read-out: TGI
Salmonella typhimurium [29] = experiment: Mutagenecity in Salmonella typhimurium TA98 without metabolic activation system at 10000 ug/ml by Ames test; format: toxicity, organism-based; settings: salmonella enterica subsp. enterica serovar typhimurium; dose 10000 µg/ml
[30] = Clearance in Wistar rat at 1.5 mg/kg, iv; format: ADME, organism-based; settings: in vivo
[31] = Toxicity in rabbit assessed as morphological changes in brain ventricle at 81 to 122 microg/kg, iv; format: tissue-based, Oryctolagus cuniculus; settings: in vivo, dose 81-122 µg/kg
[32] = Toxicity in rat assessed as morphological changes in heart at 150 to 225 microg/kg, iv; format: tissue-based; settings: in vivo, dose 150-225 µg/kg
[33] = Toxicity in rabbit assessed as morphological changes in mucosa of trachea at 81 to 122 microg/kg, iv; format: tissue-based, Oryctolagus cuniculus; settings: in vivo, dose 81-122 µg/kg
[34] = Toxicity in rabbit assessed as morphological changes in pancreas at 81 to 122 microg/kg, iv; format: tissue-based, Oryctolagus cuniculus; settings: in vivo, dose 81-122 µg/kg
[35] = Toxicity in rat assessed as morphological changes in cerebrum at 150 to 225 microg/kg, iv; format: tissue-based; settings: in vivo, dose 150-225 µg/kg

Sequence of Cytochrome P450 2C9 (P11712 whole entry): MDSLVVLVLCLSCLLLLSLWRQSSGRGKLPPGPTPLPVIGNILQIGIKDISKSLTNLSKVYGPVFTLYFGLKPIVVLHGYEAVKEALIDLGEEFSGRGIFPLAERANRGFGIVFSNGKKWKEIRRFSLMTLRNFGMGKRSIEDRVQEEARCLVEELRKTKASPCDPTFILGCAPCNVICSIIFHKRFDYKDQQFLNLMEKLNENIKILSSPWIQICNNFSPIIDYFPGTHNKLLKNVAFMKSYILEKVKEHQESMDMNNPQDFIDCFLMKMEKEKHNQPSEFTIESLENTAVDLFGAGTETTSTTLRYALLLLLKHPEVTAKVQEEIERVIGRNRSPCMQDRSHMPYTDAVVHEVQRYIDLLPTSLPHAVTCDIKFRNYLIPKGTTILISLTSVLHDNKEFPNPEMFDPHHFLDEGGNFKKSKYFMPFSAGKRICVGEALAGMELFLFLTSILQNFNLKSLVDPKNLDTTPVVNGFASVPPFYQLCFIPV
Sequence of Cytochrome P450 3A4 (P08684 whole entry): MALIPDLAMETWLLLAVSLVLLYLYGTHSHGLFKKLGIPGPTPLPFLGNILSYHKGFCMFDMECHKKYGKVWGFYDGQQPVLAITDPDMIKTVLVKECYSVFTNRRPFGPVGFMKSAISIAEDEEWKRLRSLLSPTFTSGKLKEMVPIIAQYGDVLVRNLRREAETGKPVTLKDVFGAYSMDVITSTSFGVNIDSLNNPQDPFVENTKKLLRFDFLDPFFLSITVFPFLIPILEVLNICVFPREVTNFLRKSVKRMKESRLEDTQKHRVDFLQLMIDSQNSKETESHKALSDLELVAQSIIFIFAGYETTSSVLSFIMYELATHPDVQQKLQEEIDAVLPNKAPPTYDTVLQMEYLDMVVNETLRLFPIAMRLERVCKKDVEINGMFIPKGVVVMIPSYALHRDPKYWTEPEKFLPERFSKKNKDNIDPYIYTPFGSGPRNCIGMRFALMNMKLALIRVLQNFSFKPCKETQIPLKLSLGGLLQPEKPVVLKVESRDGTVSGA

CC[C@H](C)[C@@H]([C@@H](CC(=O)N1CCC[C@H]1[C@H](OC)[C@@H](C)C(=O)N[C@H](C)[C@@H](O)c1ccccc1)OC)N(C)C(=O)[C@@H](NC(=O)[C@H](C(C)C)N(C)C(=O)OCc1ccc(NC(=O)[C@H](CCCNC(N)=O)NC(=O)[C@@H](NC(=O)CCCc2cn(CCCNC(=O)[C@H](Cc3ccc(O)cc3)NC(=O)[C@H](Cc3ccccc3)NC(=O)CCC(=O)NCCCCCC(=O)N(CCCC[C@H](NC(=O)N[C@@H](CCC(=O)O)C(=O)O)C(=O)O)Cc3cccc(Cl)c3)nn2)C(C)C)cc1)C(C)C ({GluureaLys(ε-3-ClBenzyl)-Ahx-Suc}-FY[X1]V[Cit][PABC][NMeV]V[Dil][Dolaproine]-X2)
Activity (Salmonella typhimurium [1]): Non-Toxic | Stability [2]: Unstable | Activity [3]: Non-Toxic | inhibition in vivo at 0.3 mg/kg (CWR22R): 70% | Activity [4]: Non-Toxic | half-life [5]: 4.6 h | MTD [6]: 4 mg/kg | Activity [7]: Non-Toxic | Activity [8]: Non-Toxic | Activity (Salmonella typhimurium [9]): Non-Toxic | Activity [10]: Non-Toxic | Activity [11]: Non-Toxic | Activity [12]: Non-Toxic | Activity (Salmonella typhimurium [13]): Non-Toxic | half-life [14]: 0.572 h | Activity (PC-3): inactive | Activity [15]: Non-Toxic | Drug metabolism (Cytochrome P450 2C8): Metabolite_Notdetected | Activity [16]: Non-Toxic | Activity [17]: Non-Toxic | Activity (Salmonella typhimurium [18]): Non-Toxic | AUC(0-t) [19]: 31000 ng·h/mL | MTD [20]: 3 mg/kg | IC50 (Cytochrome P450 2C9): > 25 µM | Activity [21]: Non-Toxic | Activity (Salmonella typhimurium [22]): Non-Toxic | Activity [23]: Non-Toxic | Activity [24]: Non-Toxic | mortality at 4 day [25]: 100% | IC50 (Cytochrome P450 3A4): 11.2 µM | Activity [26]: Non-Toxic | C0 [27]: 31000 ng/mL | inhibition in vivo at 10 mg/kg [28]: 84% | Activity (Salmonella typhimurium [29]): Non-Toxic | clearance [30]: 0.317 mL/min/kg | Activity [31]: Non-Toxic | Activity [32]: Non-Toxic | Activity [33]: Non-Toxic | Activity [34]: Non-Toxic | Activity [35]: Non-Toxic
